The IC50 is the concentration that gives 50% inhibition. A lower IC50 goes with greater potency. As usually defined, the melting point is the temperature of the solid-liquid transition.

Ten molecules from patent publication US20090191193A1, “Aryl Vinyl Sulfides, Sulfones, Sulfoxides and Sulfonamides, Derivatives Thereof and Therapeutic Uses Thereof” (TEMPLE UNIVERSITY-OF THE COMMONWEALTH SYSTEM OF HIGHER …, priority 2006, published 2009) can be followed below.

One data set relates to DU145 (prostate cancer). Description: Effect on tumor cell lines, viable cell count by trypan blue exclusion (Latham et al.): DU145. Particulars: Homo sapiens, DU-145, 96 h, DU145 prostate cancer cells, viable cell count 96 hours after treatment. Type of data set: cell-based.
Data set [1] has as its system H157 (non small cell lung carcinoma). The data set can be described thus: Effect on tumor cell lines, viable cell count by trypan blue exclusion (Latham et al.): H157. In kind it is cell-based. Particulars: Homo sapiens, NCI-H157, H157 non small cell lung carcinoma cells, viable cell count 96 hours after treatment. Here is the method:
(§1) The effect of the compounds of the invention on tumor cells was determined by the assay described by Latham et al., Oncogene 12:827-837 (1996). Tumor cells DU145 (prostate cancer), K562 (chronic myelogenous leukaemia), BT20 (breast carcinoma), H157 (non small cell lung carcinoma), or DLD1 (colon carcinoma) were plated in 6-well dishes at a cell density of 1.0×10^5 cells per 35-mm^2 well. The plated cells were treated 24 hours later with a compound of the invention dissolved in DMSO at multiple concentrations ranging from 100 nM to 10 μM. The total number of viable cells was determined 96 hours later by trypsinizing the wells and counting the number of viable cells, as determined by trypan blue exclusion, using a hemacytometer. Normal HFL cells were treated with the same compounds under the same conditions of concentration and time.

The next data set deals with DLD1 (colon carcinoma). Description: Effect on tumor cell lines, viable cell count by trypan blue exclusion (Latham et al.): DLD1. In kind it is cell-based. Particulars: Homo sapiens, DLD-1, DLD1 colon carcinoma cells, viable cell count 96 hours after treatment. Here is the method:
as §1

The subject of the next data set is BT20 (breast carcinoma). Description: Effect on tumor cell lines, viable cell count by trypan blue exclusion (Latham et al.): BT20. In kind it is cell-based. The conditions noted are these: Homo sapiens, BT-20, BT20 breast carcinoma cells, viable cell count 96 hours after treatment. Here is the method: as §1

`COc1cccc(OC)c1/C=C(\C(N)=O)S(=O)(=O)c1ccccc1` [Example 179] showed a melting point of 168 to 172 °C. This molecule registered an IC50 in the data set with DU145 (prostate cancer) of 10 to 20 µM. In addition, the IC50 in data set [1] fell in the range of 10 to 20 µM. This molecule registered a half-maximal inhibitory concentration (IC50) in the data set on DLD1 (colon carcinoma) of 10 to 20 µM. In the data set on BT20 (breast carcinoma), this molecule had an IC50 of 10 to 20 µM.
For the molecule `NC(=O)/C(=C\c1ccc([N+](=O)[O-])cc1)S(=O)(=O)Cc1ccc(Cl)cc1` [Example 176], the melting point is 190 to 192 °C. In the data set on DU145 (prostate cancer), this molecule registered an IC50 greater than 20 µM. In addition, in data set [1], the IC50 was greater than 20 µM. Besides, the IC50 in the data set with DLD1 (colon carcinoma) was greater than 20 µM. This molecule also returned an IC50 in the data set with BT20 (breast carcinoma) greater than 20 µM.
Turning to `NC(=O)/C(=C\c1ccc(Cl)cc1)S(=O)(=O)Cc1ccc(Cl)cc1Cl` [Example 150], the melting point lay in the range of 201 to 205 °C. Further, in the data set with DU145 (prostate cancer), the half-maximal inhibitory concentration (IC50) was greater than 20 µM. In data set [1], this molecule displayed an IC50 greater than 20 µM. In the data set with DLD1 (colon carcinoma), this molecule returned an IC50 greater than 20 µM. In the data set with BT20 (breast carcinoma), the 50% inhibitory concentration (IC50) is greater than 20 µM.
In the case of `COc1cc(OC)c(/C=C(\C(N)=O)S(=O)(=O)Cc2ccc(Cl)cc2)c(OC)c1` [Example 174], the melting point was in the range of 176 to 178 °C. The molecule also yielded an IC50 in the data set on DU145 (prostate cancer) greater than 20 µM. Further, the IC50 in data set [1] was greater than 20 µM. In the data set with DLD1 (colon carcinoma), the IC50 was greater than 20 µM. Moreover, the IC50 in the data set with BT20 (breast carcinoma) was greater than 20 µM.
Regarding `COc1ccc(CS(=O)(=O)/C(=C/c2ccc(F)cc2)C(N)=O)cc1` [Example 172], the melting point fell in the range of 158 to 161 °C. In the data set with DU145 (prostate cancer), the IC50 was greater than 20 µM. In addition, in data set [1], the IC50 was greater than 20 µM. In the data set with DLD1 (colon carcinoma), this molecule came in with an IC50 greater than 20 µM. In the data set on BT20 (breast carcinoma), this molecule returned an IC50 greater than 20 µM.
In the case of `COc1cccc(OC)c1/C=C(\C(N)=O)S(=O)(=O)Cc1ccc(Cl)cc1` [Example 175], the melting point lay in the range of 150 to 154 °C. In the data set on DU145 (prostate cancer), this molecule returned an IC50 of 10 to 20 µM. The IC50 in data set [1] is 10 to 20 µM. The molecule further registered an IC50 in the data set with DLD1 (colon carcinoma) of 10 to 20 µM. This molecule came in with an IC50 with BT20 (breast carcinoma) of 10 to 20 µM.
For the molecule `COc1ccc(CS(=O)(=O)/C(=C/c2c(OC)cccc2OC)C(N)=O)cc1` [Example 173], the melting point was in the range of 166 to 168 °C. This molecule returned an IC50 with DU145 (prostate cancer) greater than 20 µM. The same molecule gave a 50% inhibitory concentration (IC50) in data set [1] greater than 20 µM. In the data set with DLD1 (colon carcinoma), the IC50 was greater than 20 µM. The same molecule registered an IC50 in the data set on BT20 (breast carcinoma) greater than 20 µM.
In turn, `COc1ccc(S(=O)(=O)/C(=C/c2ccc([N+](=O)[O-])cc2)C(N)=O)cc1` [Example 184] registered a melting point of 172 to 174 °C. Moreover, the IC50 in the data set with DU145 (prostate cancer) is greater than 20 µM. The same molecule showed an IC50 in data set [1] greater than 20 µM. The IC50 in the data set with DLD1 (colon carcinoma) was greater than 20 µM. In the data set on BT20 (breast carcinoma), this molecule gave an IC50 greater than 20 µM.
In turn, `NC(=O)/C(=C\c1ccc(F)cc1)S(=O)(=O)c1ccccc1` [Example 177] had a melting point of 151 to 154 °C. In the data set with DU145 (prostate cancer), this molecule registered a concentration for half-maximal inhibition (IC50) of 1 to 10 µM. The IC50 in data set [1] was in the range of 1 to 10 µM. In addition, the IC50 with DLD1 (colon carcinoma) fell in the range of 1 to 10 µM. In the data set with BT20 (breast carcinoma), this molecule gave an IC50 of 1 to 10 µM.
Molecule `COc1ccc(S(=O)(=O)/C(=C/c2c(OC)cccc2OC)C(N)=O)cc1` [Example 183] had a melting point of 160 to 162 °C. Further, in the data set on DU145 (prostate cancer), the half-maximal inhibitory concentration (IC50) was greater than 20 µM. In addition, the IC50 in data set [1] is greater than 20 µM. This molecule also had an IC50 with DLD1 (colon carcinoma) greater than 20 µM. This molecule had an IC50 in the data set on BT20 (breast carcinoma) greater than 20 µM.
